The text below walks through data of patent US10786577B2, “Pharmaceutical composition comprising glutatione disulfide and glutathione disulfide S-oxide” (OBSCHESTVO S OGRANICHENNOY OTVETSTVENNOSTJU “IVA FARM”, priority 2017, dated 2020).

For experiment [1], the system named is cultured resident peritoneal rat macrophages. Description: Intracellular calcium concentration [Ca2+]i with Fura-2AM in macrophages. In kind it is cell-based. For orientation: Calcium flux is commonly read through the fluorescence of an indicator in the cells.
Experiment [2] concerns glutathione reductase (XE 1.6.4.2). Description: Liver enzyme activity in rats with cyclophosphan hepatotoxicity. As to conditions: rat liver cytosolic fraction; cyclophosphan 20 mg/kg for 10 days; test substance intraperitoneally 10 mg/kg (compound 2: 0.1 mg/kg).
Experiment [3] relates to glutathione peroxidase (XE 1.11.1.9). The experiment is described as above. As to conditions: rat liver cytosolic fraction; cyclophosphan 20 mg/kg for 10 days; test substance intraperitoneally 10 mg/kg (compound 2: 0.1 mg/kg).
The test system of experiment [4] is glutathione-S-transferase (XE 2.5.1.18). The experiment is described as above. To be noted: rat liver cytosolic fraction; cyclophosphan 20 mg/kg for 10 days; test substance intraperitoneally 10 mg/kg (compound 2: 0.1 mg/kg).
Experiment [5] has as its system glucose-6-phosphate dehydrogenase (XE 1.1.1.49). Described as above. To be noted: rat liver cytosolic fraction; cyclophosphan 20 mg/kg for 10 days; test substance intraperitoneally 10 mg/kg (compound 2: 0.1 mg/kg).
In another experiment the test system is reduced glutathione. Description: Liver reduced glutathione in rats with cyclophosphan hepatotoxicity. As to conditions: rat liver; cyclophosphan 20 mg/kg for 10 days; test substance intraperitoneally 10 mg/kg (compound 2: 0.1 mg/kg).

As for `Nc1ncnc2c1ncn2[C@@H]1O[C@H](COP(=O)(O)OP(=O)(O)OP(=O)(O)O)[C@@H](O)[C@H]1O` [ATP], the “[Ca2+]i peak” value in experiment [1] (200 μM extracellular ATP, macrophages in normal saline, basal level 75±18 nM) was found to be 820 ± 105 nM. For the same compound, the “average [Ca2+]i during plateau phase” value in experiment [1] (4 minutes after the addition of ATP (200 μM), normal saline) was 460 ± 115 nM.
With `NC(CCC(=O)NC(CS[S+]([O-])CC(NC(=O)CCC(N)C(=O)O)C(=O)NCC(=O)O)C(=O)NCC(=O)O)C(=O)O` (stereo not shown) [Example 1, glutathione disulfide S-oxide], the GR in experiment [2] is given as 117.8 ± 12.6 μmol/(min × g protein. In experiment [3], the GP was 27.9 ± 2.2 μmol/(min × g protein. Also, in experiment [4], the GST is recorded as 1857 ± 120 μmol/(min × g protein. In addition, the G-6-PDG in experiment [5] is on record as 98.1 ± 13.3 μmol/(min × g protein. In the experiment on reduced glutathione, this compound had a GSH of 11.21 ± 0.56 μmol/g protein.
